ChEMBL document CHEMBL5154688, “Design, Synthesis, and Characterization of I-BET567, a Pan-Bromodomain and Extra Terminal (BET) Bromodomain Oral Candidate” (J Med Chem, 2022)
Active and inactive are the calls of the source. The calls are words filed in the database; no cut-off is given here.

Legend:
[1] = target: T1, Bromodomain-containing protein 4 (Homo sapiens, UniProt O60885); test: Inhibition of BRD4 BD2 (unknown origin) incubated for 30 mins in presence of fluorescent ligand by TR-FRET method
C-C motif chemokine 2 = C-C motif chemokine 2 (Homo sapiens, UniProt P13500); test: Inhibition of MCP-1 in LPS-stimulated human whole blood incubate for 24 hrs by immuno assay; format: tissue-based
[2] = Intrinsic clearance in dog hepatocytes incubated upto 45 mins by LC-MS/MS analysis; format: ADME, cell-based, Canis lupus familiaris, Hepatocyte; conditions: 0.75 h
[3] = Intrinsic clearance in human hepatocytes measured after 120 mins by LC-MS/MS analysis; format: ADME, cell-based, Hepatocyte; conditions: 2 h
[4] = Unbound volume of distribution at steady state in Wistar Han rat blood at 3 mg/kg, po or 1.3 mg/kg, iv measured upto 24 hrs by LC-MS/MS analysis; format: ADME, organism-based; conditions: in vivo
[5] = Oral bioavailability in Beagle dog blood at 3 mg/kg by LC-MS/MS analysis; format: ADME, organism-based, Canis lupus familiaris
[6] = Unbound fraction in Beagle dog blood at 3 mg/kg, po or 1.0 mg/kg, iv by LC-MS/MS analysis; format: ADME, organism-based, Canis lupus familiaris
[7] = Intrinsic clearance in rat hepatocytes after 60 mins by LC-MS/MS analysis; format: ADME, cell-based, Hepatocyte; conditions: 1 h
[8] = Renal clearance in Beagle dog assessed as ratio/proportion of renal elimination to total clearance at 3 mg/kg, po or 1 mg/kg, iv by LC-MS/MS analysis; format: ADME, organism-based, Canis lupus familiaris; conditions: in vivo
[9] = Renal clearance in Wistar Han rat assessed as ratio/proportion of renal elimination to total clearance at 3 mg/kg, po or 1.3 mg/kg, iv measured upto 24 hrs by LC-MS/MS analysis; format: ADME, organism-based; conditions: in vivo
[10] = target: T1, Bromodomain-containing protein 4; test: Binding affinity to BRD4 BD1 (unknown origin) assessed as dissociation constant
[11] = target: T2, Bromodomain-containing protein 2 (Homo sapiens, UniProt P25440); test: Binding affinity to BRD2 BD1 (unknown origin) assessed as dissociation constant
[12] = target: T2, Bromodomain-containing protein 2; test: Binding affinity to BRD2 BD2 (unknown origin) assessed as dissociation constant
[13] = target: T3, Bromodomain-containing protein 3 (Homo sapiens, UniProt Q15059); test: Binding affinity to BRD3 BD1 (unknown origin) assessed as dissociation constant
[14] = target: T3, Bromodomain-containing protein 3; test: Binding affinity to BRD3 BD2 (unknown origin) assessed as dissociation constant
[15] = target: T1, Bromodomain-containing protein 4; test: Binding affinity to BRD4 BD2 (unknown origin) assessed as dissociation constant
[16] = target: T4, Bromodomain testis-specific protein (Homo sapiens, UniProt Q58F21); test: Binding affinity to BRDT BD1 (unknown origin) assessed as dissociation constant
[17] = target: T4, Bromodomain testis-specific protein; test: Binding affinity to BRDT BD2 (unknown origin) assessed as dissociation constant
[18] = target: Histone acetyltransferase p300 (Homo sapiens, UniProt Q09472); test: Binding affinity to EP300 (unknown origin) assessed as dissociation constant
Mus musculus [19] = test: Antiinflammatory activity in KLH-TNP-induced T-cell dependent immunization CD-1 mouse model assessed as reduction in circulating IgG1 at 30 mg/kg, po administered daily for 14 days followed by administration of KLH-TNP after 1 hr; format: functional; conditions: CD-1, T-cell, 336 h, time 14 day
Mus musculus [20] = test: Antiinflammatory activity in KLH-TNP-induced T-cell dependent immunization CD-1 mouse model assessed as reduction in circulating IgG1 at 30 mg/kg, po administered every other day for 14 days followed by administration of KLH-TNP after 1 hr; format: functional; conditions: CD-1, T-cell, 336 h, time 14 day
[21] = Cmax in KLH-TNP-induced T-cell dependent immunization CD-1 mouse model at 30 mg/kg, po administered daily for 14 days; format: ADME, organism-based; parameters: time 14 day, dose 30 mg/kg, route po; conditions: in vivo
[22] = AUC(0 to 72 hrs) in KLH-TNP-induced T-cell dependent immunization CD-1 mouse model at 30 mg/kg, po administered daily for 14 days; format: ADME, organism-based; parameters: dose 30 mg/kg, time 14 day, route po; conditions: in vivo
[23] = AUC(0 to 72 hrs) in KLH-TNP-induced T-cell dependent immunization CD-1 mouse model at 30 mg/kg, po administered every other day for 14 days; format: ADME, organism-based; parameters: dose 30 mg/kg, time 14 day, route po; conditions: in vivo
[24] = AUC(0 to 72 hrs) in KLH-TNP-induced T-cell dependent immunization CD-1 mouse model at 30 mg/kg, po administered every third day for 14 days; format: ADME, organism-based; parameters: dose 30 mg/kg, time 14 day, route po; conditions: in vivo
NUT midline carcinoma = test: Antineoplastic activity against human NMC 11060 cells xenografted in SCID mouse assessed as reduction in tumor growth at 3 to 30 mg/kg, po for 20 days; format: functional, organism-based; conditions: dose 3-30 mg/kg, time 20.0 day
[25] = Unbound Cmax in SCID mouse xenografted with human NMC 11060 cells at 3 to 30 mg/kg, po for 20 days; format: ADME, organism-based; conditions: in vivo, 480 h, dose 3-30 mg/kg, time 20 day
[26] = Toxicity in SCID mouse xenografted with human NMC 11060 cells assessed as loss of body weight at 30 mg/kg, po for 20 days; format: organism-based; conditions: in vivo, 480 h, time 20 day
[27] = Antineoplastic activity against human NMC 11060 cells xenografted in SCID mouse assessed as reduction in tumor volume at 10 mg/kg, po for 20 days measured at 3 days of post randomization relative to control; format: functional; conditions: NMC 11060 cell, 480 h, time 20 day
[28] = Antineoplastic activity against human NMC 11060 cells xenografted in SCID mouse assessed as reduction in tumor volume at 10 mg/kg, po for 20 days measured at 6 days of post randomization relative to control; format: functional; conditions: NMC 11060 cell, 480 h, time 20 day
[29] = Antineoplastic activity against human NMC 11060 cells xenografted in SCID mouse assessed as reduction in tumor volume at 10 mg/kg, po for 20 days measured at 8 days of post randomization relative to control; format: functional; conditions: NMC 11060 cell, 480 h, time 20 day
[30] = Antineoplastic activity against human NMC 11060 cells xenografted in SCID mouse assessed as reduction in tumor volume at 10 mg/kg, po for 20 days measured at 10 days of post randomization relative to control; format: functional; conditions: NMC 11060 cell, 480 h, time 20 day
[31] = Antineoplastic activity against human NMC 11060 cells xenografted in SCID mouse assessed as reduction in tumor volume at 10 mg/kg, po for 20 days measured at 13 days of post randomization relative to control; format: functional; conditions: NMC 11060 cell, 480 h, time 20 day
[32] = Antineoplastic activity against human NMC 11060 cells xenografted in SCID mouse assessed as reduction in tumor volume at 10 mg/kg, po for 20 days measured at 15 days of post randomization relative to control; format: functional; conditions: NMC 11060 cell, 480 h, time 20 day
[33] = Antineoplastic activity against human NMC 11060 cells xenografted in SCID mouse assessed as reduction in tumor volume at 10 mg/kg, po for 20 days measured at 20 days of post randomization relative to control; format: functional; conditions: NMC 11060 cell, 480 h, time 20 day
[34] = Antineoplastic activity against human NMC 11060 cells xenografted in SCID mouse assessed as reduction in tumor volume at 30 mg/kg, po for 20 days measured at 10 days of post randomization relative to control; format: functional; conditions: NMC 11060 cell, 480 h, time 20 day
[35] = Antineoplastic activity against human NMC 11060 cells xenografted in SCID mouse assessed as reduction in tumor volume at 30 mg/kg, po for 20 days measured at 13 days of post randomization relative to control; format: functional; conditions: NMC 11060 cell, 480 h, time 20 day

T2 sequence (P25440 whole entry): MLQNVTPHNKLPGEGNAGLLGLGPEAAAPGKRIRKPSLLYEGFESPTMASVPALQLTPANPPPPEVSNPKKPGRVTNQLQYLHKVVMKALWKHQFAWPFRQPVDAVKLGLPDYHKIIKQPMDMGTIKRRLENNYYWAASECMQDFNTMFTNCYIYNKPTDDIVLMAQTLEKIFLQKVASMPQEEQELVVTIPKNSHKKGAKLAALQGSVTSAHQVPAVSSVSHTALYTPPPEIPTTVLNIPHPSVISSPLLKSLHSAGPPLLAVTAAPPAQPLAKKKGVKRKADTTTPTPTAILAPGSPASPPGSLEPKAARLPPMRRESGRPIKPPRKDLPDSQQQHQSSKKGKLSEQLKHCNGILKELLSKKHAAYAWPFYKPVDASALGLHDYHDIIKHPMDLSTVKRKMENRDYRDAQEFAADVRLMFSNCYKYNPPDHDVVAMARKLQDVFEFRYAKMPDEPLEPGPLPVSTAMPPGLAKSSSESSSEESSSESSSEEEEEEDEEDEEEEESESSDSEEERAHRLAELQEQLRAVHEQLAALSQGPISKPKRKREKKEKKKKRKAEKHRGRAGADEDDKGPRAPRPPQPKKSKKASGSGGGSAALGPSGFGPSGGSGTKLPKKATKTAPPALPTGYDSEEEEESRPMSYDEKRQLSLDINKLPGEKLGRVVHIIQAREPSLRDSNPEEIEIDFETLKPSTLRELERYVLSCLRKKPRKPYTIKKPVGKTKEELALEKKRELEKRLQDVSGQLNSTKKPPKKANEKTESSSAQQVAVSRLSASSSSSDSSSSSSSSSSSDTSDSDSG
T3 sequence (Q15059 whole entry): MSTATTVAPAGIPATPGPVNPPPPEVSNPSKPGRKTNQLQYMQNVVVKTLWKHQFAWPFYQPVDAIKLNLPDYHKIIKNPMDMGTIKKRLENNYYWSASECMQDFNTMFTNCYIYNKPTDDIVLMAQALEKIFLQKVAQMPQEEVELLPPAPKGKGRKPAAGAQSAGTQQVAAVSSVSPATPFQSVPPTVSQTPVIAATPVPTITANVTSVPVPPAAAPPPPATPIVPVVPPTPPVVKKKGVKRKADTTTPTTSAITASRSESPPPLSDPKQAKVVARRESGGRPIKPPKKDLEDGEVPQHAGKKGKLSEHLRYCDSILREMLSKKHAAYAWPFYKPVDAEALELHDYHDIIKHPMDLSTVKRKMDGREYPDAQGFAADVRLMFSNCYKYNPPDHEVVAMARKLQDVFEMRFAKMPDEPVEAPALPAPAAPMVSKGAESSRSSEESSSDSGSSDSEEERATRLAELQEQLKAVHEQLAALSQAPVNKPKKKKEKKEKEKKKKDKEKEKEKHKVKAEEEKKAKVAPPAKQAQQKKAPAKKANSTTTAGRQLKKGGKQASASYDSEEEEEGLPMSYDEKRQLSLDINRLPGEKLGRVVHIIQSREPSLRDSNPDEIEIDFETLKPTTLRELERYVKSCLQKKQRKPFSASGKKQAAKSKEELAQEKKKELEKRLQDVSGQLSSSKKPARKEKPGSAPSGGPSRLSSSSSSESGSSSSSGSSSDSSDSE
C-C motif chemokine 2, sequence (P13500 whole entry): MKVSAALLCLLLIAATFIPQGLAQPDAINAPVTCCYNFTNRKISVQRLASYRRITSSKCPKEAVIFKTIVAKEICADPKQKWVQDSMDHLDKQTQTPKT
Histone acetyltransferase p300, sequence (Q09472 whole entry): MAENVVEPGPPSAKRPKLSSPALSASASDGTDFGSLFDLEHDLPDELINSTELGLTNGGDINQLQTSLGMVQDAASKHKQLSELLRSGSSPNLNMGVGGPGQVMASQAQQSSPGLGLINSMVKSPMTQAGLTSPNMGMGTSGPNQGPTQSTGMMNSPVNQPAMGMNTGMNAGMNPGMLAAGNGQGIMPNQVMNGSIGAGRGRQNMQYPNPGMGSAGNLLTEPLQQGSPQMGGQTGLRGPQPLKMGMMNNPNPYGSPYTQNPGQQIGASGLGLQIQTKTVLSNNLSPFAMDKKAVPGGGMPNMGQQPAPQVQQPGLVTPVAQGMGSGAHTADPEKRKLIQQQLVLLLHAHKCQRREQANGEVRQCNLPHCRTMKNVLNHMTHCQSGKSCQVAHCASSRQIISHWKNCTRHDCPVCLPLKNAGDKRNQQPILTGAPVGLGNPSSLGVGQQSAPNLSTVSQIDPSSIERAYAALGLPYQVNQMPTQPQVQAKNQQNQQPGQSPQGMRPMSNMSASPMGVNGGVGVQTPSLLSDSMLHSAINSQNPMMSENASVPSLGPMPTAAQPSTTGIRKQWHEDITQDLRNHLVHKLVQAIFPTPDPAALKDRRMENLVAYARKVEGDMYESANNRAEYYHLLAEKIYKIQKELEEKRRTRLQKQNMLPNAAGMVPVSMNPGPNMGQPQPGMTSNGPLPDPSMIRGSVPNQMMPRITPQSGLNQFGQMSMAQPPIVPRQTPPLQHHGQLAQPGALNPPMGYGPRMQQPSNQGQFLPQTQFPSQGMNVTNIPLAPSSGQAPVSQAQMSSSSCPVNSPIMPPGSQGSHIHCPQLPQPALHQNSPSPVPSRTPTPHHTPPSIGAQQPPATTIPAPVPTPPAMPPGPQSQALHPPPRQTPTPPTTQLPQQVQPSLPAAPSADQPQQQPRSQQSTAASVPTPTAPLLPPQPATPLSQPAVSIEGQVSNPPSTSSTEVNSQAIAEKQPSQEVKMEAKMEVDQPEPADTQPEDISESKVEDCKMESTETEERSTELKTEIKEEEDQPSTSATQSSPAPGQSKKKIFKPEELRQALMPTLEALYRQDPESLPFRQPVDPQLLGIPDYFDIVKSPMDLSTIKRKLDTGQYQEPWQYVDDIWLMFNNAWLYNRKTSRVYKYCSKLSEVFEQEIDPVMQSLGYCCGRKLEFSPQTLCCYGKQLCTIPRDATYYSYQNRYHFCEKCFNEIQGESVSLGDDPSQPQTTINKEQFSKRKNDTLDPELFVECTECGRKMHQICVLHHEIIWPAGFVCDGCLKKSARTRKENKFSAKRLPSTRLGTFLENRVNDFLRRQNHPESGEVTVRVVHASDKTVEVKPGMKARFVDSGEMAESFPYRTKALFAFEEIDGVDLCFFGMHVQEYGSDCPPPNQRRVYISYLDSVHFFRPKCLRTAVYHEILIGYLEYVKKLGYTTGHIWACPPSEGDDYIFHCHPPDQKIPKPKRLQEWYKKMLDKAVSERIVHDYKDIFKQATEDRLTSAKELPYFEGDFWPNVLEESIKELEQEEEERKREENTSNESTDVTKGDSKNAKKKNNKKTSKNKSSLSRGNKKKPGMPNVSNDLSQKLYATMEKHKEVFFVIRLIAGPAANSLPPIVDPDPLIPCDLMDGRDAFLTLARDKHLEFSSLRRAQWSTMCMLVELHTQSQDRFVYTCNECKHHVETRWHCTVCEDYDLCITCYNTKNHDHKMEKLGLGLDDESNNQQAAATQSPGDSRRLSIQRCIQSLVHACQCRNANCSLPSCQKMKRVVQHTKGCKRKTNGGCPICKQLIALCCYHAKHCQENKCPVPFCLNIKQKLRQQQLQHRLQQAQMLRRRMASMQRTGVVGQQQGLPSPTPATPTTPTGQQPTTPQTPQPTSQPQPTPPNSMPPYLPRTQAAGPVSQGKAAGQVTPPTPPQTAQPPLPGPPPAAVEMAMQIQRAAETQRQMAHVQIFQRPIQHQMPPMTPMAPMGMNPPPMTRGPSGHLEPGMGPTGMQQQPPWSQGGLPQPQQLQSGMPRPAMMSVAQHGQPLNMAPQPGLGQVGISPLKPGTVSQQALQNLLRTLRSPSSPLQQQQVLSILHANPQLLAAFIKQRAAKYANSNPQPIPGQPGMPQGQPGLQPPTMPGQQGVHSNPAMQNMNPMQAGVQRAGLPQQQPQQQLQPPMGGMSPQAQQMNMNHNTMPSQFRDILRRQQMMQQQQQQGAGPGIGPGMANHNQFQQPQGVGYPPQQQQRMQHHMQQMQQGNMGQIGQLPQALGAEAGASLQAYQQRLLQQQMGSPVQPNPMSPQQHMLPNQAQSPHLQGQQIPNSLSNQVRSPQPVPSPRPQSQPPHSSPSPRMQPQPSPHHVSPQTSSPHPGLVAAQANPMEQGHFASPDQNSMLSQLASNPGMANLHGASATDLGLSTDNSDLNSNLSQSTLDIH

IC50 [1]: 63.1 nM
IC50 (C-C motif chemokine 2): 200 nM
CLH [2]: < 1.26 mL/min/g
CLH [3]: < 0.87 mL/min/g
Vduss [4]: 10.4 L/kg
bioavailability [5]: 98%
fraction unbound [6]: 0.41
CLH [7]: < 0.8 mL/min/g
Ratio [8]: 85%
Ratio [9]: 28%
Kd [10]: 25.1 nM
Kd [11]: 39.8 nM
Kd [12]: 7.94 nM
Kd [13]: 25.1 nM
Kd [14]: 6.31 nM
Kd [15]: 5.01 nM
Kd [16]: 25.1 nM
Kd [17]: 25.1 nM
Kd [18]: 2510 nM
Cmax [21]: 8.5 µM
AUC at 336 h [22]: 103 µM·h
AUC at 336 h [23]: 69 µM·h
AUC at 336 h [24]: 34 µM·h
fCmax [25]: 2 µM
Structure (SMILES): CC(=O)N1c2ccc(C(N)=O)cc2[C@H](Nc2ncc(Cl)cn2)C[C@@H]1C
inhibition in vivo at 30 mg/kg (Mus musculus [19]): 98%
inhibition in vivo at 30 mg/kg (Mus musculus [20]): 93%
Activity (NUT midline carcinoma): Active
Activity [26]: 19.6%
inhibition in vivo at 10 mg/kg [27]: 45%
inhibition in vivo at 10 mg/kg [28]: 54%
inhibition in vivo at 10 mg/kg [29]: 62%
inhibition in vivo at 10 mg/kg [30]: 69%
inhibition in vivo at 10 mg/kg [31]: 56%
inhibition in vivo at 10 mg/kg [32]: 65%
inhibition in vivo at 10 mg/kg [33]: 51%
inhibition in vivo at 30 mg/kg [34]: 83%
inhibition in vivo at 30 mg/kg [35]: 88%
